Measured values published in US6369101B1, “Therapeutic method to treat herpes virus infection” (Regents of the University of Minnesota, priority 1999, dated 2002).
Values after ≈ are worked out from the molar mass of the structure shown. “Also recorded” adds a separate entry of the source.

Key:
[1] = system: HSV-2 strain MS; assay: CPE inhibition assay, HSV-2 MS in human foreskin fibroblast cells; format: cell-based, herpes simplex virus type 2; for Qualitative CPE at 2.0 ml dose HSV-2 MS: key: +++ = Complete cytopathic effect; ++ = Moderate cytopathic effect; + = Minimum cytopathic effect; − = No cytopathic effect
Method: (§1) Stock solutions of the compounds used for the testing of antiviral activity against HSV-1 and HSV-2 were prepared in distilled water, filtered through 0.2 μm filter (Acrodisco®, Gelman Sciences, USA) and stored at room temperature until used.
(§2) Human laryngeal epithelial carcinoma cells (HEp-2, ATCC, Rockville, Md.) were used for testing of antiviral compounds by cytopathic effect (CPE) inhibition and plaque reduction assay. Primary human foreskin fibroblast cells (HFF) obtained from Dr. E. R. Kern (Department of Pediatrics, University of Alabama Medical School, 309 Bevill Biomedical Research Building, 845 19th Street South, Birmingham, Ala., 35294-2170), were used for cytopathic effect (CPE) inhibition assay. HEp-2, African green monkey kidney cells (Vero, ATCC), HFF and primary rabbit kidney cells were used to determine the cytotoxic effect of compounds of formula I. These cells were propagated in Dulbeco's modified Eagle's medium (DMEM) (Sigma, USA) supplemented with 10% inactivated fetal calf serum (FCS), 25 mM HEPES, 0.2% sodium bicarbonate and 1% penicillin/-streptomycin at 37° C. in the presence of 5% CO2.
(§3) The antiviral activity of the test compounds was determined against HSV-1 strain F, HSV-2 strain G (ATCC), HSV-1 strain E-377 and HSV-2 strain MS (Dr. E. R. Kern, see above), CMV strain AD 169 (NIH), HCMV (NIH), MCMV (NIH), and VZV strain Ellen (NIH). Highly infective virus stocks of HSV-1 and HSV-2 were prepared by infecting a confluent monolayer of HEp-2 (ATCC) or HFF in 150 cm^2 plastic tissue culture flasks (Falcon, USA) at a multiplicity of infection of 0.5 in DMEM supplemented with 10% inactivated fetal calf serum and 1% penicillin/streptomycin at 37° C. in the presence of 5% CO2. The infected cells were disrupted through three freeze/thaw cycles, and viruses were clarified from large cell debris by low speed centrifugation at 3000 rpm for 10 minutes. The virus suspension was separated, aliquoted and stored at −80° C. until assayed or used for animal infection. The stock HSV-1 (E377) and HSV-2 (MS strain) contained 3.5×10^8 and 1.1×10^7 pfu/ml respectively.
(§4) Low passage HFF cells were seeded into 96-well tissue culture plates 24 hours prior to use at a cell concentration of 2.5×10^4 cells per ml in 0.2 ml of DMEM supplemented with 10% fetal calf serum. After 24 hours of incubation at 37° C. in the presence of 5% CO2, medium was removed and the test compounds were diluted two-fold in DMEM in the 96-well tissue culture plate containing monolayer. […] For both HSV-1 and HSV-2 assays, the virus concentration utilized was 1000 pfu/ml and for HCMV, MCMV, and VZV assay 2500 pfu/ml were used. The plates were then incubated at 37° C. in the presence of 5% CO2 for two to three days for HSV-1 and HSV-2, 10 days for VZV and 14 days for HCMV and MCMV. The virus induced cytopathic effect (CPE) was monitored microscopically every day. CPE of HSV-1 was recognized by cell rounding and clumping, while HSV-2 formed large syncytia along with rounding and clumping of cells. […] EC50s were estimated from graphical plots of percent CPE against the concentration of the test compounds. The EC50s for each compound are the mean of EC50s for three or more independent experiments. After three days of incubation period, media was aspirated and the cells stained with a 0.1% crystal violet solution for 30 minutes. The stain was then removed and the plates were rinsed with tap water, air dried and retained.

[2] = system: HSV-1 strain F; assay: CPE inhibition, HSV-1 strain F in HEp-2 cells; note: key: +++ = Complete cytopathic effect; ++ = Moderate cytopathic effect; + = Minimum cytopathic effect; − = No cytopathic effect; format: cell-based, herpes simplex virus type 1; details: conc. per compound (ng/ml)
Text: as §2, §3, §4

[3] = system: HSV-1 strain E-377; assay: CPE inhibition assay, HSV-1 E377 in human foreskin fibroblast cells; format: cell-based, herpes simplex virus type 1; for Qualitative CPE at 2.0 ml dose HSV-1 E377: key: +++ = Complete cytopathic effect; ++ = Moderate cytopathic effect; + = Minimum cytopathic effect; − = No cytopathic effect
Method: as §1, §2, §3, §4

[4] = Cell proliferation assay (cytotoxicity) in HFF cells; format: cell-based, human; details: primary human foreskin fibroblast (HFF) cells; Human foreskin fibroblast cells; reduces growth of uninfected cells by 50%
Method: as §2, with “Primary human foreskin fibroblast cells (HFF) obtained from Dr. E. R. Kern (Department of Pediatrics, University of Alabama Medical School, 309 Bevill Biomedical Research Building, 845 19th Street South, Birmingham, Ala., 35294-2170), were used for cytopathic effect (CPE) inhibition assay.” left out
(§5) HFF, Vero and HEp-2 cells were seeded in 24-well tissue culture plates at a concentration of […] in DMEM containing 10% FCS and incubated for 24 hours at 37° C. in the presence of 5% CO2. To the monolayer of these cells 0.5, 1.0, 1.5 and 2.0 ml of solution of antiviral compounds were added in the respective wells in duplicate and the cells were then incubated in a 5% CO2 incubator at 37° C. for 72 hours. The cells were observed daily for any change in morphology. […] At the end of this time, the media-drug solution was removed and the cells washed. One ml of 0.25% trypsin was added to each well and incubated until the cells start to come off of the plate. The cells-media mixture was then pipetted up and down several times to resuspend the cells and 0.2 ml of the cell suspension was added to 9.8 ml of trypan blue and cells were counted using hemocytometer. Each sample was counted three times with three replicate wells per sample.

[5] = system: Primary human foreskin fibroblast cells (HFF); assay: as above; format: cell-based; details: HFF cells; solution conc. per compound (ng/ml) (Acyclovir 250); 2.0 ml dose
Method: as §2, with “Primary human foreskin fibroblast cells (HFF) obtained from Dr. E. R. Kern (Department of Pediatrics, University of Alabama Medical School, 309 Bevill Biomedical Research Building, 845 19th Street South, Birmingham, Ala., 35294-2170), were used for cytopathic effect (CPE) inhibition assay.” left out
as §5

[6] = system: HSV-2 (strain G); assay: Plaque reduction assay, HSV-2 strain G in HEp-2 cells; format: cell-based, herpes simplex virus type 2; details: conc. per compound (ng/ml) (Acyclovir 250), HSV-2 virus control 47
Method: HEp-2 cells were grown to monolayer in 24 well tissue culture plates in DMEM containing 10% fetal calf serum at 37° C. for 24-36 hours in the presence of 5% CO2. The monolayer of HEp-2 cells was infected with 0.1 ml of HSV- 1 (strain F) or HSV-2 (strain G) containing 100 pfu. The viruses were allowed to adsorb for 1 hour at 37° C. in the presence of 5% CO2. All wells containing virus infected cells except virus control were overlaid with 0.9 ml of DMEM and 1 ml of test compound. The virus control and cell control received DMEM only. All microtiter plates were incubated at 37° C. in the presence of 5% CO2 and observed twice daily for 72 hours for viral CPE. At the end of the experiment, plates were stained with 0.1% crystal violet and the results were quantified by counting plaque forming units.

[7] = system: HSV-2 strain G; assay: CPE inhibition, HSV-2 strain G in HEp-2 cells; note: key: +++ = Complete cytopathic effect; ++ = Moderate cytopathic effect; + = Minimum cytopathic effect; − = No cytopathic effect; format: cell-based, herpes simplex virus type 2; details: conc. per compound (ng/ml)
Text: as §2, §3, §4

[8] = Cytotoxic effect in Vero cell line; format: cell-based, African green monkey; details: African green monkey, Vero cells; Vero cell line
Method: as §2, with “Primary human foreskin fibroblast cells (HFF) obtained from Dr. E. R. Kern (Department of Pediatrics, University of Alabama Medical School, 309 Bevill Biomedical Research Building, 845 19th Street South, Birmingham, Ala., 35294-2170), were used for cytopathic effect (CPE) inhibition assay.” left out
as §5

[9] = system: Vero cells; assay: Cytotoxic effect in Vero cell line; format: cell-based, African green monkey; details: African green monkey kidney (Vero) cells
Method: as §2, with “Primary human foreskin fibroblast cells (HFF) obtained from Dr. E. R. Kern (Department of Pediatrics, University of Alabama Medical School, 309 Bevill Biomedical Research Building, 845 19th Street South, Birmingham, Ala., 35294-2170), were used for cytopathic effect (CPE) inhibition assay.” left out
as §5

[10] = Cytotoxic effect in primary rabbit kidney cells; format: cell-based; details: primary rabbit kidney cells; Primary Rabbit Kidney cell line
Method: as §2, with “Primary human foreskin fibroblast cells (HFF) obtained from Dr. E. R. Kern (Department of Pediatrics, University of Alabama Medical School, 309 Bevill Biomedical Research Building, 845 19th Street South, Birmingham, Ala., 35294-2170), were used for cytopathic effect (CPE) inhibition assay.” left out
as §5

[11] = system: Primary Rabbit Kidney cells; assay: Cytotoxic effect in primary rabbit kidney cells; format: cell-based; details: primary rabbit kidney cells
Method: as §2, with “Primary human foreskin fibroblast cells (HFF) obtained from Dr. E. R. Kern (Department of Pediatrics, University of Alabama Medical School, 309 Bevill Biomedical Research Building, 845 19th Street South, Birmingham, Ala., 35294-2170), were used for cytopathic effect (CPE) inhibition assay.” left out
as §5

[12] = system: Human laryngeal epithelial carcinoma cells (HEp-2); assay: Cytotoxicity in HEp-2 cells; format: cell-based
Method: as §2, with “Primary human foreskin fibroblast cells (HFF) obtained from Dr. E. R. Kern (Department of Pediatrics, University of Alabama Medical School, 309 Bevill Biomedical Research Building, 845 19th Street South, Birmingham, Ala., 35294-2170), were used for cytopathic effect (CPE) inhibition assay.” left out
as §5

[13] = HFF cells, solution conc. per compound (ng/ml) (Acyclovir 250), 2.0 ml dose

## CC1(C)CCC23CC[C@]4(C)C(CCC5[C@@]6(C)CCC(O)C(C)(C)C6CC[C@]54C)C2C1OC3 (stereo partly drawn) [Allobetulin, 3β-hydroxy-19αH-19,28-epoxy-oleanane]
[1]; CPE inhibition in HFF cells
  EC50 HSV-2 MS: 225 ng/mL (≈ 0.508 µM)
[1]; [13]
  Qualitative CPE at 2.0 ml dose HSV-2 MS: ++
[1]; Human alphaherpesvirus 2, HFF, CPE inhibition in HFF cells, read-out: EC50 HSV-2 MS
  EC50: ~0.225 µg/mL (≈ 0.508 µM)
[2]
  Cytopathic Effect (CPE) Inhibition HSV-1 Strain F: ++
[3]; CPE inhibition in HFF cells
  EC50 HSV-1 E377: 300 ng/mL (≈ 0.678 µM)
[3]; [13]
  Qualitative CPE at 2.0 ml dose HSV-1 E377: +++
[3]; Human alphaherpesvirus 1, HFF, CPE inhibition in HFF cells, read-out: EC50 HSV-1 E377
  EC50: ~0.3 µg/mL (≈ 0.678 µM)
[4]
  CC50 at 72 h: 0.3 µg/mL (≈ 0.678 µM)
[5]
  Qualitative Cytotoxic Effect at 2.0 ml dose: −
[6]
  Plaque Reduction Assay Average pfu/10^5 Cells HSV-2 Strain G: 17 pfu/10^5 Cells
[7]
  Cytopathic Effect (CPE) Inhibition HSV-2 Strain G: ++
[8]
  CC50 at 72 h: 0.3 µg/mL (≈ 0.678 µM)
[9]
  cytotoxicity (in words): generally not toxic
[10]
  CC50 at 72 h: > 0.3 µg/mL
[11]
  cytotoxicity (in words): No cytotoxicity; also recorded: generally not toxic
[12]; HEp-2 (human epithelial) cells
  cytotoxicity (in words): less cytotoxicity; also recorded: generally not toxic
[12]; HEp-2 cells, conc. per compound (ng/ml)
  Cell Cytotoxicity: −
